Assay results: publication PMC9872677, “Boronic Acid Transition State Inhibitors as Potent Inactivators of KPC and CTX-M β-Lactamases: Biochemical and Structural Analyses” (Antimicrobial Agents and Chemotherapy, 2023)
Converted amounts (≈) assume the structure as drawn. Where two headings read alike, the source gives them in different places.

What was measured:
[1] = target: T1, CTX-M-96 β-lactamase (Escherichia coli, UniProt Q9EXV5, N92S); test: Off rate (koff) after preincubation with saturating BATSI; assay type: biochemical
[2] = system: pan-drug-resistant KPC-producing K. pneumoniae clinical isolate; set-up: method as in our unpublished data; settings: paired with cefepime; separate paper and previous results, ref our unpublished data; cited from earlier work
[3] = Solubility as DMSO stock solution; assay type: physicochemical; settings: organic solvent or mixture
[4] = target: T1, CTX-M-96 β-lactamase; test: IC50 after 5-min preincubation, nitrocefin reporter substrate; assay type: biochemical; settings: 100 μM nitrocefin
Description: (§1) Using nitrocefin as an indicator substrate and 5 min incubation before steady-state velocities were determined, 50% inhibitory concentrations (IC50s) in the nanomolar range for KPC-2 and CTX-M-96 β-lactamases were measured, and both inhibitors bound CTX-M-96 with greater affinity than KPC-2 (Table 1). The IC50 was approximatively 40-fold lower for CTX-M-96 than KPC-2 for both inhibitors. The IC50 of S02030 is 2 nM against CTX-M-96 and 80 nM against KPC-2 ([12]). […] The on rates (k2/K) for S02030 and MB_076 versus CTX-M-96 were 24,000 M^−1 s^−1 and 3,900 M^−1 s^−1, respectively, and those for KPC-2 were 12,000 M^−1 s^−1 and 1,200 M^−1 s^−1 respectively (Table 1). […] The k2/K values for both BATSIs against CTX-M-96 were lower than those of avibactam ([16]). […] Kinetic plots for CTX-M-96–S02030, CTX-M-96–MB_076, and KPC-2–MB_076 are shown in Fig. S1 in the supplemental material.
(§2) The inhibition by BATSIs is assumed to follow a reversible mechanism according to the following scheme: (1) E + I ↔ E:I ↔ E-I^*↔ E-I^** where E represents the enzyme, I the BATSI, E:I the Michaelis complex, E-I* the enzyme-inhibitor complex as the acylation transition state analog, and E-I** the deacylation transition state intermediate, according to previous models ([15]). The half-maximal inhibitory concentration (IC50) was measured after a 5-min preincubation of the enzyme and each BATSI at increasing concentrations, with 100 μM nitrocefin as the reporter substrate, as previously described ([12], [13]).

[5] = target: T2, KPC-2 β-lactamase (Klebsiella pneumoniae, UniProt Q9F663); test: as above; assay type: biochemical; settings: 100 μM nitrocefin
T2 construct: made in house; host or cells: E. coli BL21 Star
Description: as §1, §2

[6] = target: T2, KPC-2 β-lactamase; test: Off rate (koff) after preincubation with saturating BATSI; assay type: biochemical
Description: The koff value was determined by mixing KPC-2 or CTX-M-96 with 100 μM nitrocefin after preincubating 5 min with a saturating amount of each BATSI, and progress curves were fitted to a single exponential decay equation as previously described ([12][–][14]).

[7] = target: T1, CTX-M-96 β-lactamase; test: On rate (k2/K) from progress curves with nitrocefin; assay type: biochemical
Description: (§3) To determine the on rate (k2/K), progress curves were obtained by incubating KPC-2 or CTX-M-96 with increasing concentrations of BATSIs and 100 μM nitrocefin as the reporter substrate. Progress curves were fitted to equation 2 to obtain kobs values, by nonlinear least-squares fitting of the data, and k2/K was determined from equation 3. (2) A = vf * t + (v0 − vf) × (1 − e^−kobst)/kobserved + A0 (3) kobserved = k−2 + (k2/K) × ([I]/(1 + ([S]/Km nitrocefin))) In equation 2, A is absorbance at 482 nm, vf is final velocity, t is time, v0 is initial velocity, and A0 is initial absorbance at 482 nm. In equation 3, [I] is the concentration of BATSI and [S] is the concentration of nitrocefin. The data were plotted as kobs versus [BATSI], and the k2/K value was obtained by correcting the value for the slope of the line for the concentration and affinity of nitrocefin (Equation 4). (4) k2/Kcorrected = k2/Kobserved × (([S]/Km nitrocefin) + 1)

[8] = target: T2, KPC-2 β-lactamase; test: as above; assay type: biochemical
Description: as §3

[9] = system: Escherichia coli DH10B carrying blaSHV, blaKPC-2, and blaKPC-3 variants; set-up: method as in PMID 26729496; settings: previous studies; cited from earlier work
[10] = target: T2, KPC-2 β-lactamase; set-up: method as in PMID 26729496; settings: published previously; cited from earlier work
[11] = target: T2, KPC-2 β-lactamase; set-up: method as in PMID 26729496; settings: off rate, published previously; cited from earlier work
[12] = target: CTX-M-96; set-up: method as in PMID 26228623; settings: previously reported; cited from earlier work

| SMILES | Koff [1] | restoration of cefepime activity [2] | solubility [3] [mM] | IC50 [4] [nM] | IC50 [5] [nM] | Koff [6] [s⁻¹] | k2/K [7] | k2/K ([8]; on rate) | kinact/KI ([8]; on rate) [M⁻¹ s⁻¹] | restoration of susceptibility combined with cefepime [9] | IC50 [10] [nM] | Koff [11] | k2/K fold higher compared to MB_076 [8] [fold] | inactivation efficiency value (kinact/KI) [12] |
| --- | --- | --- | --- | --- | --- | --- | --- | --- | --- | --- | --- | --- | --- | --- |
| Nc1nnc(SCC(=O)N[C@@H](Cn2cc(C(=O)O)nn2)B(O)O)s1 [MB_076] | (0.62 ± 0.05) × 10^−3 s^−1 | restore cefepime activity | 1000 (≈ 373 mg/mL) | 4 ± 0.5 | 135 ± 20 | 0.001 | 3,900 M^−1 s^−1 | 1,200 M^−1 s^−1 | 1200 |  |  |  |  |  |
| O=C(Cc1cccs1)N[C@@H](Cn1cc(C(=O)O)nn1)B(O)O [S02030] | (0.75 ± 0.03) × 10^−3 s^−1 | restore cefepime activity | 250 (≈ 81 mg/mL) | 2 ± 0.2 |  |  | 24,000 M^−1 s^−1 |  |  | restored susceptibility | 80 ± 2 | (0.46 ± 0.02) × 10^−3 s^−1 | 10 |  |
| O=C(O)[C@H]1/C(=C/CO)O[C@@H]2CC(=O)N21 [clavulanic acid] |  |  |  |  |  |  |  |  |  |  |  |  |  | 45,000 M^−1 s^−1 |
